Format in all cases: cell-based
In assay [1] the test system is Notch signaling (hNotch1ΔE, human Notch1 receptor) in HeLa cells. Kind of assay: Notch reporter assay (luciferase luminescence readout in transfected HeLa cells). To be noted: Homo sapiens, 20 hours, relative to DMSO baseline level of 1.0, read-out: AVEw, weighted arithmetic mean of double-normalized Notch-reporter luciferase luminescence values (Activity Range). Put shortly: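 HeLa cells were transiently transfected for 24 h with membrane-tethered constitutively active hNotch1ΔE, a CSL-promoter Firefly luciferase reporter and constitutive SV40-Renilla luciferase. Compounds were then applied at 10 μM (0.1% DMSO) for 20 h. Firefly/Renilla dual-luciferase ratios were normalized to DMSO control (baseline 1.0), outliers were excluded, and replicate values were averaged across ≥3 independent experiments.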
For orientation: In a reporter assay the amount or activity of a reporter protein is the signal.

Assay [2] has as its system HL-60 cells (human acute myeloid leukemia cells). Kind of assay: alamarBlue proliferation assay with HL-60 cells. To be noted: 120 h, 5 days, relative to DMSO baseline level of 1.0, read-out: AVEw, weighted arithmetic mean of normalized fluorescence intensity values (Activity Range), HL-60 proliferation. Summed up:
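HL-60 cells (1000/well, RPMI 1640 + 10% FBS) exposed to compound in 0.1% DMSO for 5 days, then alamarBlue fluorescence read (ex 560/em 590 nm). Signals normalized to six DMSO wells per plate (baseline 1.0); outliers removed by Peirce/Chauvenet; weighted mean with combined SD; inhibitor criterion judged at 20 μM reference concentration.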

Assay [3] relates to CAL-27 cells (human tongue squamous cell carcinoma cells). Kind of assay: alamarBlue proliferation assay with CAL-27 cells. The following applies: Homo sapiens, 120 h, 20 μM, 5 days, relative to DMSO baseline level of 1.0, read-out: AVEw, weighted arithmetic mean of normalized fluorescence intensity values (Activity Range), CAL-27 proliferation. How it is done:
The antiproliferative activities of compounds falling under formula I, formula II, formula III, formula IV and formula V were investigated on cells or cell lines originating from a disorder of the myeloid cell compartment, the neuroendocrine system, the cervix, and the mucosal epithelium, as well as from the skin epithelium. To this end, HL-60 cells, TT cells, HeLa cells, CAL-27 cells and human primary epidermal keratinocytes (HPEK) were seeded into 96-well plates suitable for fluorescence assays (CORNING #3598) at following initial cell numbers: 1000 cells per well for HL-60; 9000 cells per well for TT; 2000 cells per well for HeLa, 2000 cells per well for CAL-27, 2000 cells per well for HPEK. The cells were treated with compounds at indicated final concentrations (diluted from the 1000× stock-solutions in DMSO to a final DMSO concentration of 0.1% v/v) or with the empty carrier DMSO at 0.1% v/v as control for 5 days. At day 5 after starting the treatments the cells were subjected to the alamarBlue® Proliferation Assay (Bio-Rad Serotec GmbH, BUF012B) according to the protocol of the manufacturer. The readout was taken with a multi-well plate-reader in the fluorescence mode with applying a filter for excitation at 560 nm (band width 10 nm) and for emission at 590 nm (band width 10 nm). Resveratrol (RES) treatment was included as control for growth inhibition.
The assays were performed in duplicate or more replicates of independent single experiments each containing a six-fold replicate for every condition. For every individual plate, the measured fluorescence intensity values of the conditions with compound treatment were normalized against the corresponding equally weighted arithmetic mean of the fluorescence intensity values of the six DMSO treated control wells in order to obtain the relative values to a baseline level of 1.0. The statistical calculations were performed in analogy to the luciferase assay as described above. To this end, two independent outlier analyses were performed according to the methods by Peirce and Chauvenet (Ross, Journal of Engineering Technology 2003, 1-12). Outliers confirmed by at least one of the methods were excluded from the calculations but not more than one value out of six per compound within a single experiment. The weighted arithmetic mean AVEw for each compound was calculated from the normalized values over all independent replicates of the single experiments comprising the six replicates each. The corresponding standard deviation for the weighted arithmetic mean was calculated according to the method described by Bronstein et al. (Bronstein, Semendjajew, Musiol, Mühlig, Taschenbuch der Mathematik, 5th edition 2001 (German), publisher: Verlag Harri Deutsch, Frankfurt am Main and Thun) and was combined with the Gauß′ error propagation associated with the performed calculation for the normalization. The resulting standard deviation is herein referred to as “combined standard deviation”.
CAL-27 cells were cultivated according to the protocol of the provider (but at 5% instead of 10% CO2) in DMEM medium (Fisherscientific, #11584456) containing 10% fetal bovine serum (Fisherscientific, #15517589).
A compound is considered as a growth inhibitor of CAL-27 cells, if—at a reference concentration of 20 μM—the weighted arithmetic mean of the normalized fluorescence intensity values after addition of the corresponding combined standard deviation amounts to 0.9 or lower, in particular to 0.8 or lower, 0.7 or lower, 0.6 or lower, 0.4 or lower, and 0.2 or lower, relative to the overall basis level of 1.0. The overall basis level was calculated as the weighted arithmetic mean of all normalized values from the DMSO control measurements in analogy to the calculations performed for the test-compounds. The corresponding combined standard deviation for the DMSO values amounts to less than 1·10^−2.

SMILES strings stand for the structures.

This note sets out measurements from US12600696B2 (XENIOPRO GMBH, priority 2017, dated 2026).

Consider `CCCCCc1ccc(Oc2ccc(C(=O)NO)cc2)cc1` [Compound 168, N-hydroxy-4-(4-pentylphenoxy)benzamide], for which the fold induction at 10 µM in assay [1] was in the range of 1.3 to 1.4. Besides, the activity at 20 µM in assay [2] and in assay [3] was 0 to 20% each time.

Regarding `CC(C)c1ccc(Oc2ccc(C(=O)NO)cc2)cc1` [Compound 170, N-hydroxy-4-(4-isopropylphenoxy)benzamide], the fold induction at 10 µM in assay [1] lay within 1.1 to 1.2. Moreover, the activity at 20 µM was 0 to 20% in assay [2] and 20 to 40% in assay [3].

In the case of `O=C(NO)c1ccc(Oc2ccc(C3C[C@@H]4CC[C@H]3C4)cc2)cc1` (stereo partly drawn) [Compound 184, 4-(4-((1S,4R)-bicyclo[2.2.1]heptan-2-yl)phenoxy)-N-hydroxybenzamide], in assay [1], the fold induction at 10 µM was 1.3 to 1.4. The activity at 20 µM in assay [2] and in assay [3] was 0 to 20% in each case.

On to `CNC(=O)c1ccc(Oc2ccc(C3CC4CCC3CC4)cc2)cc1` (stereo not drawn) [Compound 211, 4-(4-((1s,4s)-bicyclo[2.2.2]octan-2-yl)phenoxy)-N-methylbenzamide], for which the activity at 20 µM fell in the range of 20 to 40% in assay [2] and 40 to 60% in assay [3].

As for `CN(C)C(=O)c1ccc(Oc2ccc(C3C[C@@H]4CC[C@H]3C4)cc2)cc1` (stereo partly drawn) [Compound 236, 4-(4-((1S,4R)-bicyclo[2.2.1]heptan-2-yl)phenoxy)-N,N-dimethylbenzamide], the figures for the activity at 20 µM in assay [2] and in assay [3] were 40 to 60% and 80 to 90%, respectively.

Take `CN(C)C(=O)c1ccc(Oc2ccc(C34CC5CC(CC(C5)C3)C4)cc2)cc1` [Compound 238, 4-(4-((3r,5r,7r)-adamantan-1-yl)pheoxy)-N,N-dimethylbenzamide]: the activity at 20 µM in assay [2] lay in the range of 40 to 60%; in assay [3] it was 60 to 70%.

On to `Cc1ccc(Oc2ccc(C(=O)NO)cn2)cc1` [Compound 266, N-hydroxy-6-(p-tolyloxy)nicotinamide], for which, in assay [1], the fold induction at 10 µM lay within 1.4 to 1.7. In addition, the values for the activity at 20 µM in assay [2] and in assay [3] were 0 to 20% and 40 to 60%, respectively.

Regarding `CCc1ccc(Oc2ccc(C(=O)NO)cn2)cc1` [Compound 267, 6-(4-ethylphenoxy)-N-hydroxynicotinamide], in assay [1], the fold induction at 10 µM is 1.1 to 1.2. The activity at 20 µM in assay [2] was in the range of 0 to 20%; in assay [3], 20 to 40%.

With `CCCc1ccc(Oc2ccc(C(=O)NO)cn2)cc1` [Compound 268, N-hydroxy-6-(4-propylphenoxy)nicotinamide], the fold induction at 10 µM in assay [1] fell in the range of 1.3 to 1.4. Moreover, the activity at 20 µM in assay [2] and in assay [3] was 0 to 20% each time.

Turning to `CCCCc1ccc(Oc2ccc(C(=O)NO)cn2)cc1` [Compound 269, 6-(4-butylphenoxy)-N-hydroxynicotinamide], in assay [1], the fold induction at 10 µM is 1.4 to 1.7. Besides, the activity at 20 µM in assay [2] and in assay [3] was 0 to 20% throughout.

As to `CCCCCc1ccc(Oc2ccc(C(=O)NO)cn2)cc1` [Compound 270, N-hydroxy-6-(4-pentylphenoxy)nicotinamide], the activity at 20 µM in assay [2] and in assay [3] was 0 to 20% in each case.

Regarding `O=C(NO)c1ccc(Oc2ccc(C(F)(F)F)cc2)nc1` [Compound 275, N-Hydroxy-6-(4-(trifluoromethyl)phenoxy)nicotinamide], in assay [1], the fold induction at 10 µM fell in the range of 1.2 to 1.3. The activity at 20 µM in assay [2] and in assay [3] was 0 to 20% throughout.

For the molecule `O=C(NO)c1ccc(Oc2ccc(C3C[C@@H]4CC[C@H]3C4)cc2)nc1` (stereo partly drawn) [Compound 286, 6-(4-((1S,4R)-bicyclo[2.2.1]heptan-2-yl)phenoxy)-N-hydroxynicotinamide], the fold induction at 10 µM in assay [1] lay within 1.3 to 1.4. In addition, the activity at 20 µM in assay [2] and in assay [3] was 0 to 20% in each case.

On to `CNC(=O)c1ccc(Oc2ccc(C34CC5CC(CC(C5)C3)C4)cc2)nc1` [Compound 313, 6-(4-((3r,5r,7r)-adamantan-1-yl)phenoxy)-N-methylnicotinamide], for which the activity at 20 µM in assay [2] was in the range of 40 to 60%; in assay [3], 70 to 80%.

With `CCC(C)(C)c1ccc(Oc2ccc(C(=O)NO)cc2F)cc1` [Compound 529, 3-fluoro-N-hydroxy-4-(4-(tert-pentyl)phenoxy)benzamide], the activity at 20 µM in assay [2] and in assay [3] was 0 to 20% in each case.

On to `CN(C)C(=O)c1ccc(Oc2ccc(C34CC5CC(CC(C5)C3)C4)cc2)c(F)c1` [Compound 596, 4-(4-((3r,5r,7r)-adamantan-1-yl)phenoxy)-3-fluoro-N,N-dimethylbenzamide], for which the activity at 20 µM in assay [2] lay in the range of 20 to 40%; in assay [3] it was 80 to 90%.

On to `O=C(NO)c1cnc(Oc2ccc(C34CC5CC(CC(C5)C3)C4)cc2)c(F)c1` [Compound 648, 6-(4-((3r,5r,7r)-adamantan-1-yl)phenoxy)-5-fluoro-N-hydroxynictinamide], for which the activity at 20 µM in assay [2] and in assay [3] was 0 to 20% throughout.

Regarding `O=C(NO)c1ccc(Oc2ccc(C3(C(F)(F)F)CC3)cc2)cc1` [Compound 766, N-hydroxy-4-(4-(1-(trifluoromethyl)cyclopropyl)phenoxy)benzamide], the activity at 20 µM in assay [2] and in assay [3] was 0 to 20% each time.

With `O=C(NO)c1ccc(Oc2ccc(C3(C(F)(F)C(F)(F)F)CC3)cc2)cc1` [Compound 767, N-hydroxy-4-(4-(1-(perfluoroethyl)cyclopropyl)phenoxy)benzamide], the activity at 20 µM in assay [2] and in assay [3] was 0 to 20% throughout.

With `O=C(NO)c1ccc(Oc2ccc(C3(C(F)(F)F)CC3)cc2Cl)cc1` [Compound 774, 4-(2-chloro-4-(1-(trifluoromethyl)cyclopropyl)phenoxy)-N-hydroxybenzamide], the figures for the activity at 20 µM in assay [2] and in assay [3] were 0 to 20% and 70 to 80%, respectively.

For the molecule `O=C(NO)c1ccc(Oc2ccc(C3(C(F)(F)F)CC3)cc2)nc1` [Compound 802, N-hydroxy-6-(4-(1-(trifluoromethyl)cyclopropyl)phenoxy)nicotinamide], the activity at 20 µM in assay [2] and in assay [3] was 0 to 20% in each case.

For `O=C(NO)c1ccc(Oc2ccc(C3(C(F)(F)C(F)(F)F)CC3)cc2)nc1` [Compound 803, N-hydroxy-6-(4-(1-(perfluoroethyl)cyclopropyl)phenoxy)nicotinamide], the activity at 20 µM in assay [2] and in assay [3] was 0 to 20% throughout.

As to `O=C(NO)c1cnc(Oc2ccc(C3(C(F)(F)F)CC3)cc2)c(F)c1` [Compound 804, 5-fluoro-N-hydroxy-6-(4-(1-(trifluoromethyl)cyclopropyl)phenoxy)nicotinamide], the activity at 20 µM in assay [2] and in assay [3] was 0 to 20% each time.

Regarding `CN(C)C(=O)c1cnc(Oc2ccc(C3(C(F)(F)F)CC3)cc2)c(F)c1` [Compound 822, 5-fluoro-N,N-dimethyl-6-(4-(1-(trifluoromethyl)cyclopropyl)phenoxy)nicotinamide], the activity at 20 µM fell in the range of 70 to 80% in assay [2] and 80 to 90% in assay [3].
